Source: US12036221B2, “Ketamine or dextromethorphan formulations and methods of use” (West Virginia University, priority 2014, dated 2024)

Legend:
[1] = forced swim test (preclinical); assay type: in vivo; conditions: preclinical studies
[2] = in vivo; cited from earlier work
NMDA receptors = conditions: cited from earlier work
sigma receptors = conditions: cited from earlier work
depression = conditions: cited from earlier work
[3] = test system: treatment resistant patients; assay: off-label use of transbuccal ketamine in treatment resistant patients (day-hospital, preliminary data)

Row | Compound | immobility time in the forced swim test [1] | metabolism in the body [2] | affinity for NMDA receptors (NMDA receptors) | affinity for sigma receptors (sigma receptors) | duration of antidepressant effects (depression; in vivo) | onset of antidepressant effects after administration (depression; off-label use) [h] | onset of rapid acting antidepressant effects (depression; sub-anesthetic doses) | onset of antidepressant effects ([3]; 0.5 mg/kg liquid ketamine held in the mouth (transbuccal), patient report and clinician observation) [h] | side effects ([3]; 0.5 mg/kg liquid ketamine, transbuccal / oral mucosa absorption)
1 | CN(C)CCCN1c2ccccc2CCc2ccccc21 [imipramine] | dose dependently reduces immobility time | – | – | – | – | – | – | – | –
2 | COc1ccc2c(c1)[C@]13CCCC[C@@H]1[C@H](C2)N(C)CC3 [DM, dextromethorphan] | dose dependently reduces immobility time | rapidly metabolized in the body to dextrorphan | moderate affinity | significant affinity | – | – | – | – | –
3 | CNC1(c2ccccc2Cl)CCCCC1=O (stereo not drawn) [ketamine] | dose dependently reduces immobility time | – | – | significant affinity | up to two | ≤ 24 | two | ≤ 24 | No side effects (except for a transient, mild headache and slight dizziness in one patient each soon after administration)
